# Results published in paper PMC5983663, “Design, Synthesis, and Biological Evaluation of Benzimidazole-Derived Biocompatible Copper(II) and Zinc(II) Complexes as Anticancer Chemotherapeutics” (International Journal of Molecular Sciences, 2018).
# Key:
# Test in all cases: MTT assay
# Type in all cases: cell-based, human
# HT018 (Colon) = conditions: HT018, 48 h; NA stands for Not Active
# Protocol: (§1) Human cancer cell lines HepG2 (Liver), SK-MEL-1 (Skin), HT 018 (Colon), HeLa (Cervical), and MDA-MB 231 (Breast) were procured from the American Type Culture Collection (Rockville, MD, USA). MDA-MB-231 and HepG2 cell lines were maintained in DMEM; whereas SK-MEL-1, HeLa, and HT-018 were maintained in RPMI medium. The complete growth medium was supplemented with 10% (v/v) heat-inactivated FCS, 2 mM L-glutamine, and antimycotic-antibiotic solution. All of the cells were maintained in a standard culture condition of 37 °C temperature and 95% humidified atmosphere containing 5% CO2. Cells were screened periodically for mycoplasma contamination.
# (§2) The novel complexes 1 and 2 were examined for their cytotoxicity against five different types of cancer cell lines viz., HepG2, SK-MEL-1, HT 018, HeLa, and MDA-MB 231 using a standard MTT reduction assay, according to Khan et al. (2012). Briefly, cells at a concentration of 1 × 10^6 cells/[…]/well were plated in 96-well plates and further grown in their respective medium containing 10% FCS. After 24 h, cells were incubated with 0–25 μM concentrations of test complexes or respective free ligands. Cells with 0.1% DMSO (vehicle control) and cisplatin (positive control) were also cultured under the same conditions. Cells only were used as negative control. Ensuing 48 h of incubation, old medium from treated cells was replaced with fresh medium. MTT reagent (5 mg/mL in PBS) was added to each well, and cells were further incubated for 2–3 h at 37 °C. After treatment, the supernatants were carefully removed, and 100 μL of DMSO was added to each well. Absorbance was measured at 620 nm in a multi-well plate reader, and drug sensitivity was expressed in terms of the concentration of drug required for a 50% reduction of cell viability (IC50).
# HeLa (Cervical) = conditions: 48 h, NA stands for Not Active
# Protocol: as §1, §2
# HepG2 (Liver) = conditions: HepG2, 48 h; NA stands for Not Active
# Protocol: as §1, §2
# MDA-MB 231 (Breast) = conditions: MDA-MB 231, 48 h; NA stands for Not Active
# Protocol: as §1, §2
# SK-MEL-1 (Skin) = conditions: SK-MEL-1, 48 h; NA stands for Not Active
# Protocol: as §1, §2
compound,measurement,setting,value
"N.N.[Cl][Pt][Cl] [Cisplatin, cisplatin, reference compound]",IC50,HT018 (Colon),5.7 ± 0.2 µM
same,IC50,HeLa (Cervical),6 ± 0.6 µM
same,IC50,HepG2 (Liver),6 ± 0.4 µM
same,IC50,MDA-MB 231 (Breast),3.1 ± 0.2 µM
same,IC50,SK-MEL-1 (Skin),5.6 ± 0.8 µM
